Measured values reported in patent US7402575B2, “Methods of treating inflammation” (priority 2003, dated 2008).
“Also recorded” adds a separate entry of the source.

Legend:
Format in all cases: cell-based, dog
lysozyme c (Lzm-S) [1] = biological target: T1, lysozyme c (Lzm-S) (Canis lupus familiaris, UniProt P81709); test: Inhibition of Lzm-S's myocardial depressant activity (isometric tension) in right ventricular trabecular preparation; conditions: Lzm-S 10^−7M first, then inhibitor 10^−3M at 15 min intervals (Example 4)
T1 construct: Lzm-S was purified in a manner described by Grobler et al (14); from tissue
T1 sequence (P81709 1-130): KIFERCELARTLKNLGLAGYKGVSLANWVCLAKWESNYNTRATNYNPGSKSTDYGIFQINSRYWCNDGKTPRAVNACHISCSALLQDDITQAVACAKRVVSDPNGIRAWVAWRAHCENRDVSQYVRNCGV

[2] = system: right ventricular trabecular preparation; test: Effect of the substance itself on isometric tension in right ventricular trabecular preparation
Procedure: Aliquots of the 10-30 KD plasma fraction (0.05 to 1 ml) were then added to a right ventricular (RV) trabecular preparation to test for the presence of FCS activity. The RV preparation has previously been described (6,7). Briefly, mongrel dogs (3 to 10 kg) were anesthetized with pentobarbital, and their hearts were removed. Three to four thin trabeculae (<1 mm diameter) were obtained from the right ventricle and were suspended in a vertical constant temperature bath (5 ml) that contained Krebs Henseleit (KH) solution. The muscle was stimulated electrically at 0.5 Hz. Aliquots of plasma fractions (from 0.05 to 1 ml) were added to respective organ baths at 5 minute intervals. The changes observed in the pre and septic plasma fractions were expressed relative to tensions found at baseline (i.e. prior to the addition of the sample). An increase in the depressant activity in the septic plasma fraction relative to that found in the presepsis sample was indicative of an increase in FCS.
The effect of purified Lzm-S on myocardial depression was then studied in the ventricular trabecular preparation. In initial experiments, the objective was to compare Lzm-S prepared from septic and nonseptic spleens to see if there was any difference between the two preparations. Although no differences were apparent by SDS-PAGE gel, different isoforms of the enzyme could have developed in sepsis thereby increasing its potential to cause myocardial depression. Aliquots of the septic and nonseptic preparations were added (at 5 minute intervals) to respective organ baths, and the changes in isometric tension were then compared between Lzm-S obtained from spleens of septic and nonseptic animals.
The right ventricular (RV) preparation used in this study has also been described (49,6). Briefly, mongrel dogs (3 to 10 kg) were anesthetized with pentobarbital. The hearts were removed, flushed with 50 ml of Krebs-Henseleit solution (KH), and placed in ice-cold KH bubbled with a mixture of 95% O2 and 5% CO2. […]
After baseline tension was determined, either the lectin or placebo was placed into respective organ baths. […]

lysozyme c (Lzm-S) [3] = biological target: T1, lysozyme c (Lzm-S); test: Inhibition of Lzm-S's myocardial depressant activity (isometric tension) in right ventricular trabecular preparation; conditions: for Attenuation of the reduction in isometric tension, inhibitor added after Lzm-S: Lzm-S 10^−7M added before the inhibitor; for Isometric tension following pre-treatment with sugar: Lzm-S 10^−7M, sugar 10^−3M added before Lzm-S; for Inhibition of Lzm-S's depressant effect on isometric tension: inhibitor 10^−3M added before Lzm-S, paced 0.5 Hz
Procedure: In subsequent experiments, the objective was to determine whether pretreatment of Lzm-S with the proteolytic enzyme proteinase-K reduced the extent to which myocardial depression developed in the in vitro preparation (7). Proteinase-K (attached to beaded agarose; Sigma Chemical, St Louis, Mo.) was added to the pure Lzm-S preparation. The effects of proteinase-K treated and nontreated Lzm-S on isometric tension were compared between the samples. Since proteinase-K is a non-specific proteolytic enzyme, a specific competitive inhibitor of lysozyme, TAC (chitotriose) was subsequently examined to determine whether it prevented the depression in isometric tension observed in the in vitro preparation (16,17).
In one set of experiments, it was determined whether TAC prevented the reduction in tension observed with Lzm-S. A dose of 10^−3M TAC (based on preliminary experiments) was added to the organ bath before the addition of Lzm-S. Lzm-S was then added to bring the final concentrations to 10^−10M, 10^−9M, 10^−8M, and 10^−7M in sequential steps. In a related set of experiments, the effect of TAC was studied under a similar protocol in which the ventricular trabecular preparation was paced at 1 Hz instead of 0.5 Hz. The objective was to determine whether the higher frequency altered the inhibitory response of TAC. In a third set of experiments, the sequence of adding TAC and Lzm-S was reversed. Lzm-S (10^−7M) was initially added to the preparation, after which TAC at bath concentrations of 10^−6M, 10^−5M, 10^−4M, 10^−3M were sequentially added. The objective was to determine whether TAC could attenuate the effect of Lzm-S on reducing the isometric response after an initial depression in isometric tension had already been attained.
The right ventricular (RV) preparation used in this study has also been described (49,6). Briefly, mongrel dogs (3 to 10 kg) were anesthetized with pentobarbital. The hearts were removed, flushed with 50 ml of Krebs-Henseleit solution (KH), and placed in ice-cold KH bubbled with a mixture of 95% O2 and 5% CO2. Three to four thin trabeculae (<1 mm diameter) were obtained from the right ventricle and were tied at each end with 6-O silk thread. Each thin muscle was suspended in a vertical constant temperature bath (5 ml) that contained KH (in mM: NaCl, 118; KCl, 4.7; CaCl2 2.5; MgSO4, 1.2; KH2PO4, 1.4; NaHCO3, 25; and dextrose, 11). The muscle was stimulated electrically via punctate platinum bipolar electrodes with rectangular pulses (1 ms duration) at an intensity of 50% above threshold delivered at intervals of 2,000 ms. The trabeculae were stretched to optimal length.
Inhibitory activities of N-acetylglucosamine (NAG), N,N′ diacetylglucosamine (NAG-NAG: N,N′ diacetylchitobiose), and N,N′,N″,N′″ tetraacetylglucosamine (NAG-NAG-NAG-NAG: N,N′,N″,N′″-tetraacetylchitotetraose) were examined (Sigma Corp Canada, Oakville Ontario). These are structurally similar to TAC, but have a different number of NAG units (17). Two somewhat related sugars were also examined to see if there was potential for blocking the activity of lysozyme. These included D-cellotriose and N-aceytllactosamine. D-cellotriose includes three glucose residues linked by beta (1-4) glycosidic linkages, while N acetyllactosamine includes N-acetylglucosamine and galactose residues linked by beta (1-4) glycosidic linkages (12).
After baseline tension was determined, either the sugar or placebo was placed into respective organ baths. The concentration of the sugar used was 10^−3M based on the inventors' previous experiments with TAC 49), while the concentrations of lysozyme were 10^−9, 10^−8, and 10^−7M, respectively. Measurements were obtained at 5 minute intervals. The changes in isometric tension measured from baseline were compared between the treated and placebo baths. […]

Structure (SMILES)	Isometric tension, inhibitor added after myocardial depression had already been produced by lysozyme (lysozyme c (Lzm-S) [1])	Effect of the substance by itself on isometric tension [2]	Attenuation of the reduction in isometric tension, inhibitor added after Lzm-S (lysozyme c (Lzm-S) [3])	Isometric tension following pre-treatment with sugar (lysozyme c (Lzm-S) [3])	Attenuation of Lzm-S's depressant activity at higher pacing rate (lysozyme c (Lzm-S) [3]; TAC 10^−3M before Lzm-S, paced 1 Hz)	Inhibition of Lzm-S's depressant effect on isometric tension (lysozyme c (Lzm-S) [3])	Inhibition of Lzm-S's depressant effect on isometric tension (lysozyme c (Lzm-S) [3]; listed as N,N′ diacetylchitobiose)	Inhibition of Lzm-S's depressant effect on isometric tension (lysozyme c (Lzm-S) [3]; listed as diacetylchitobiose)
CC(=O)N[C@H]1[C@H](O[C@H]2[C@H](O)[C@@H](NC(C)=O)C(O)O[C@@H]2CO)O[C@H](CO)[C@@H](O[C@@H]2O[C@H](CO)[C@@H](O)[C@H](O)[C@H]2NC(C)=O)[C@@H]1O (stereo partly drawn) [TAC, N,N′,N″ triacetylglucosamine]	55 % of baseline	no effect on isometric tension; also recorded: modest depressant effect	treatment attenuated the reduction in isometric tension; also recorded: attenuated the decrease in isometric tension as compared to when no intervention was instituted	approximately 77 % of baseline	still observed at this higher heart rate	significantly less than that found in the nontreated group	–	–
CC(=O)N[C@H]1[C@H](O[C@H]2[C@H](O)[C@@H](NC(C)=O)C(O)O[C@@H]2CO)O[C@H](CO)[C@@H](O)[C@@H]1O (stereo partly drawn) [chitobiose, N,N′ diacetylglucosamine]	65 % of baseline	modest depressant effect	attenuated the decrease in isometric tension as compared to when no intervention was instituted	approximately 90 % of baseline	–	–	completely blocked lysozyme's depressant activity	inhibited the depressant effect of Lzm-S
